Laboratory results from patent US20120101136A1, “5-MEMBERED HETEROARYL DERIVATIVES USED AS SPHINGOSINE 1- PHOSPHATE RECEPTOR AGONISTS” (GLAXO GROUP LIMITED, priority 2009, published 2012).
pEC50: −log10 of the molar value.

biological target: T1, S1P1 receptor (human Endothelial Differentiation Gene 1 (EDG1)) (Homo sapiens, UniProt P21453); test: S1P1 Tango Assay - 384 Well Format (EDG1-bla/U2OS cells); type: cell-based; details: agonist, beta-lactamase reporter
T1 construct: TEV protease site; Gal4-VP16 transcription factor; expressed in transfected cells; host or cells: Tango GPCR-bla U2OS parental cell line (EDG1-bla/U2OS)
T1 sequence (P21453 whole entry, the tested form may be a part): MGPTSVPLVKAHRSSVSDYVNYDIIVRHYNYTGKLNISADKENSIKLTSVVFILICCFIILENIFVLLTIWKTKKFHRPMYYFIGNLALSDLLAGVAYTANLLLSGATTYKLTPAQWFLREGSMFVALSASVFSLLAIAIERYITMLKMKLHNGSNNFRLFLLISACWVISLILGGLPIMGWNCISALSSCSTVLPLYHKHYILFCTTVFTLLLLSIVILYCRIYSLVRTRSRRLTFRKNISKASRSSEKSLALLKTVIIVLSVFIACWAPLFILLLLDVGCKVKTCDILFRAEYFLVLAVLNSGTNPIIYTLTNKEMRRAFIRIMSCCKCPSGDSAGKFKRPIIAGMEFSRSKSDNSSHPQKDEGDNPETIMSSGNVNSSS
Experimental: Recombinant EDG1-bla/U2OS cells (contain the human Endothelial Differentiation Gene 1 (EDG1) linked to a TEV protease site and a Gal4-VP16 transcription factor stably integrated into the Tango GPCR-bla U2OS parental cell line) were harvested from growth medium and passaged into assay medium (Invitrogen Freestyle Expression Medium). The cells were starved for 24 hours at 37° C., 5% CO2, harvested and resuspended in assay medium at a density of ˜200,000 cells/ml.
All test compounds were dissolved in DMSO at a concentration of 10 mM and were prepared in 100% DMSO to provide 10 point dose response curves. Test compounds prepared by Bravo (Velocity 11) were added to wells in columns 2-11 and 13-22; DMSO was added to wells in columns 12 and 23 as unstimulated controls and assay medium was added to wells in columns 1 and 24 as cell-free controls. An S1P1 agonist was added to wells in row 2, columns 2-11 as stimulated controls and test compounds were added to wells in row 2, columns 13-22 and rows 3-15, columns 2-11/13-22 (row 1 and 16 were empty and not used). Compounds in solution were added to the assay plate (Greiner 781090) using an Echo (Labcyte) dose-response program (50 nl/well). The unstimulated and cell-free controls were loaded with 50 nl/well pure DMSO to ensure that the DMSO concentration was constant across the plate for all assays.
50 μl of the cell suspension was added to each well in columns 2-23 of the plate (˜10,000 cells per well). 50 μl of assay medium was added to each well in the cell-free controls (columns 1 and 24). The cells were incubated overnight at 37° C./5% CO2.
10 μl of 6× substrate mixture (LiveBLAzer™-FRET B/G substrate (CCF4-AM) Cat # K1096 from Invitrogen, Inc.) was added to each well using Bravo and the plates incubated at room temperature for 2 h in the dark. The plate was finally read on EnVision using one excitation channel (409 nm) and two emission channels (460 nm and 530 nm).
The blue/green emission ratio (460 nm/530 nm) was calculated for each well, by dividing the background-subtracted Blue emission values by the background-subtracted Green emission values. The dose response curve is based on sigmoidal dose-response model. All ratio data was normalized based upon the maximum emission ratio of positive control and minimum emission ratio of negative control (DMSO) on each plate. The intrinsic activity (IA) of each compound would be the normalized percentage of its maximum response after curve fitting.

SMILES | pEC50
CC(C)Oc1ccc(-c2nc(-c3ccc(OCC(=O)O)cc3)no2)cc1C#N [Example 25, {[4-(5-{3-cyano-4-[(1-methylethyl)oxy]phenyl}-1,2,4-oxadiazol-3-yl)phenyl]oxy}acetic acid] | ≥ 7.00
CC(C)Oc1ccc(-c2nc(-c3ccc(OCC(=O)O)cc3F)no2)cc1C#N [Example 23, {[4-(5-{3-cyano-4-[(1-methylethyl)oxy]phenyl}-1,2,4-oxadiazol-3-yl)-3-fluorophenyl]oxy}acetic acid] | ≥ 7.00
CCc1cc(OCCNC)ccc1-c1noc(-c2ccc(OC(C)C)c(C#N)c2)n1 [Example 33, 5-[3-(2-ethyl-4-{[2-(methylamino)ethyl]oxy}phenyl)-1,2,4-oxadiazol-5-yl]-2-[(1-methylethyl)oxy]benzonitrile] | ≥ 8.00
CCc1cc(OCCCC(=O)O)ccc1-c1noc(-c2ccc(OC(C)C)c(Cl)c2)n1 [Example 30, 4-{[4-(5-{3-chloro-4-[(1-methylethyl)oxy]phenyl}-1,2,4-oxadiazol-3-yl)-3-ethylphenyl]oxy}butanoic acid] | ≥ 10.00
CC(C)Oc1ccc(-c2nc(-c3ccc(OCCCC(=O)O)cc3)no2)cc1C#N [Example 24, 4-{[4-(5-{3-cyano-4-[(1-methylethyl)oxy]phenyl}-1,2,4-oxadiazol-3-yl)phenyl]oxy}butanoic acid] | ≥ 9.00
CCc1cc(OCCCC(=O)O)ccc1-c1noc(-c2ccc(OC(C)C)c(C#N)c2)n1 [Example 32, 4-{[4-(5-{3-cyano-4-[(1-methylethyl)oxy]phenyl}-1,2,4-oxadiazol-3-yl)-3-ethylphenyl]oxy}butanoic acid] | ≥ 10.00
CCc1cc(OCCCC(=O)O)ccc1-c1nnc(-c2ccc(OC(C)C)c(C#N)c2)o1 [Example 15, 4-{[4-(5-{3-cyano-4-[(1-methylethyl)oxy]phenyl}-1,3,4-oxadiazol-2-yl)-3-ethylphenyl]oxy}butanoic acid] | ≥ 9.00
CNCCCOc1ccc(-c2noc(-c3ccc(OC(C)C)c(Cl)c3)n2)c(C)c1 [Example 40, (3-{[4-(5-{3-chloro-4-[(1-methylethyl)oxy]phenyl}-1,2,4-oxadiazol-3-yl)-3-methylphenyl]oxy}propyl)methylamine] | ≥ 8.00
CC(C)NCCCCOc1ccc(-c2noc(-c3ccc(OC(C)C)c(C#N)c3)n2)c(Cl)c1 [Example 18, 5-{3-[2-chloro-4-({4-[(1-methylethyl)amino]butyl}oxy)phenyl]-1,2,4-oxadiazol-5-yl}-2-[(1-methylethyl)oxy]benzonitrile] | ≥ 8.00
CCc1cc(OCCCC(=O)O)ccc1-c1nc(-c2ccc(OC(C)C)c(C#N)c2)ns1 [Example 41, 4-{[4-(3-{3-cyano-4-[(1-methylethyl)oxy]phenyl}-1,2,4-thiadiazol-5-yl)-3-ethylphenyl]oxy}butanoic acid] | ≥ 9.00
CC(C)Oc1ccc(-c2nc(-c3ccc(OCCCCC(=O)O)cc3F)no2)cc1C#N [Example 11, 5-{[4-(5-{3-Cyano-4-[(1-methylethyl)oxy]phenyl}-1,2,4-oxadiazol-3-yl)-3-fluorophenyl]oxy}pentanoic acid] | ≥ 9.00
CC(C)Oc1ccc(-c2nc(-c3ccc(OCCCCN(C)C)cc3Cl)no2)cc1C#N [Example 17, 5-[3-(2-chloro-4-{[4-(dimethylamino)butyl]oxy}phenyl)-1,2,4-oxadiazol-5-yl]-2-[(1-methylethyl)oxy]benzonitrile] | ≥ 8.00
CCc1cc(OCCCNC)ccc1-c1cnc(-c2ccc(OC(C)C)c(C#N)c2)s1 [Example 44, 5-[5-(2-ethyl-4-{[3-(methylamino)propyl]oxy}phenyl)-1,3-thiazol-2-yl]-2-[(1-methylethyl)oxy]benzonitrile] | ≥ 6.00
CCc1cc(OCCCNC)ccc1-c1nnc(-c2ccc(OC(C)C)c(C#N)c2)s1 [Example 13, 5-[5-(2-ethyl-4-{[3-(methylamino)propyl]oxy}phenyl)-1,3,4-thiadiazol-2-yl]-2-[(1-methylethyl)oxy]benzonitrile] | ≥ 6.00
